The values that follow come from US20260092114A1, “TREATMENT OF LUNG CANCER USING A COMBINATION OF AN ANTI-PD-1 ANTIBODY AND ANOTHER ANTI-CANCER AGENT” (Bristol-Myers Squibb Company, priority 2016, published 2026).

Read-outs that look alike come from different tables or passages of the source.

One data set concerns NSCLC. As to conditions: cited from earlier work; for median OS with maintenance therapy: non-squamous NSCLC patients, maintenance after platinum doublet.
The test system of data set [1] is metastatic squamous cell NSCLC. Particulars: cited from earlier work.
Data set [2] in a line: CA184022 study of ipilimumab. The class given is in vivo, human. As for the experimental part: Similarly, ipilimumab at 10 mg/kg has been safely administered over a 90 minute duration. In the CA184022 study, where ipilimumab was administered up to a dose of 10 mg/kg, on-study drug related hypersensitivity events (Grade 1-2) were reported in 1 (1.4%) subject in the 0.3 mg/kg and in 2 (2.8%) subjects in the 10 mg/kg group. […] Ipilimumab 10 mg/kg monotherapy has also been safely administered as 90 minute infusion in large phase 3 studies in prostate cancer (CA184043) and as adjuvant therapy for stage 3 melanoma (CA184029), with infusion reactions occurring in subjects. Administering 1 mg/kg of ipilimumab represents one-tenth of the 10 mg/kg dose.

In data set [3] the test system is CMV specific memory T cells. The experiment in a line: CMV re-stimulation assay with human PBMC. The class given is cell-based. Particulars: dose-dependent, versus isotype-matched control. An excerpt: (Topalian S L et al. N Eng J Med 2012; 366: 2443-54.)
In data set [4] the test system is chemotherapy-naive advanced NSCLC. The data set is described as follows: CA209012 Phase 1 study, nivolumab monotherapy and nivolumab plus ipilimumab, first line. The class given is in vivo, human. As for the experimental part:
Nivolumab monotherapy at 3 mg/kg every 2 weeks has been evaluated in one of several cohorts of chemotherapy-naive patients with advanced NSCLC in study CA209012. Results from this cohort (n=52), including 13 subjects with squamous histology and 39 subjects with non-squamous histology, show an overall response rate (ORR) of 23% and a disease control rate (DCR) of 50%. The PFS rate at 24 weeks is 41%, with a median PFS of 16 weeks. The OS rate at 12 months is 74%, and the median overall survival (OS) is 22.6 months. The majority of responses have been durable, with the median duration of response not reached. In contrast, the median OS for patients with non-squamous histology who receive platinum doublet chemotherapy is 13 months, and for those with squamous histology is 10 months. (Ellis et al. J Clin Oncol (2014) 32:1277-1280.)
The nivolumab plus ipilimumab combination has been also evaluated at several different doses and schedules as first line therapy in patients with advanced NSCLC in CA209012, an ongoing Phase 1 study of nivolumab as monotherapy and in combination with a variety of agents. Early cohorts evaluated 2 different dosing schedules: nivolumab 1 mg/kg+ipilimumab 3 mg/kg, every 3 weeks for four cycles as induction, followed by nivolumab 3 mg/kg every 2 weeks; or nivolumab 3 mg/kg+ipilimumab 1 mg/kg, every 3 weeks for four cycles as induction, followed by nivolumab 3 mg/kg every 2 weeks.
Thus, a third combination cohort was initiated: nivolumab 1 mg/kg+ipilimumab 1 mg/kg every 3 weeks (“1+1”) for 4 cycles as induction, followed by nivolumab 3 mg/kg every 2 weeks as maintenance. This dosing regimen has been much better tolerated with only 13% of subjects experiencing treatment-related AEs leading to discontinuation. […] The ORR is 16%, and the DCR is 58%. The PFS rate at 24 weeks is 55% with a median PFS of 46.1 weeks. The OS rate at 12 months is 63%, and the median OS is not reached. Activity has been observed in patients with both PD-L1 positive (PD-L1+) and PD-L1 negative (PD-L1−) tumors. […]
Analyses based on archival specimens for subjects in CA209012 have shown that subjects with both PD-L1+(IHC greater than or equal to 5%) and PD-L1 tumors may benefit from treatment with nivolumab. […] However, the disease control rate (DCR, CR+PR+SD) was 54% for those with PD-L1+ tumors and 50% for those with PD-L1− tumors. […] Again there was less of a difference in the DCR between the 2 groups: 53% for those with PD-L1+ tumors and 51% for those with PD-L1− tumors. For subjects receiving nivolumab monotherapy, the PFS rate at 24 weeks was 40% and 45% for patients with PD-L1+ and PD-L1− tumors respectively; the median OS was 19.1 months in subjects with PD-L1+ tumors and not reached in subjects with PD-L1− tumors. For subjects receiving nivolumab plus ipilimumab, the median PFS was 21.7 weeks and 12.4 weeks in PD-L1+ and PD-L1− tumors respectively; the median OS was 21.5 months in subjects with PD-L1+ tumors and 19.4 months in subjects with PD-L1− tumors. […]

Data set [5] can be described thus: nivolumab pharmacokinetics, population pharmacokinetic (PPK) analysis. The class given is in vivo, human. Particulars: for Cavgss Geo. Mean / Cmaxss Geo. Mean / Cminss Geo. Mean: geometric mean (cv %). The method, then: Nivolumab monotherapy has been studied in NSCLC patient population in studies CA209003, CA209063, CA209017, and CA209057 with body weight normalized dosing (mg/kg). Nivolumab pharmacokinetics (PK) and exposures of subjects in these studies have been characterized by population pharmacokinetic (PPK) analysis of data collected these studies, together with PK data from several phase 1, 2, and 3 clinical studies of nivolumab monotherapy in solid tumors. Nivolumab PK was determined to be linear, with dose proportional exposures over a dose range of 0.1 to 10 mg/kg. […] Conversely, given the relationship between nivolumab PK and body weight, a flat dose is expected to lead to lower exposures in heavier patients, relative to the exposures in lighter patients.
Table 3 presents summary statistics of the estimated nivolumab steady-state trough, peak and time-averaged concentration (Cminss, Cmaxss, and Cavgss, respectively) in NSCLC subjects receiving 3 mg/kg, together with corresponding statistics of exposures predicted for a flat nivolumab dose of 240 mg. It should be noted that a dose of 240 mg nivolumab is identical to a dose of 3 mg/kg for subjects weighing 80 kg, which is the approximate median body weight of NSCLC subjects in the 3 phase 2 and 3 clinical studies of nivolumab monotherapy in NSCLC patients (CA209017, CA209057, and CA209063).

Data set [6] is described as follows: nivolumab monotherapy tolerability across clinical studies. The class given is in vivo.
For the next data set, the system named is previously treated NSCLC. As to conditions: cited from earlier work.
The subject of data set [7] is metastatic squamous cell NSCLC. Particulars: CA209063, 117 patients; cited from earlier work.
The test system of data set [8] is second line or later NSCLC. Particulars: 3 mg/kg dose, cited from earlier work.
The target in another data set is PD-1 (Homo sapiens, UniProt Q15116). Set-up: endogenous in cells. As to conditions: across all doses 0.3 mg/kg to 10 mg/kg, 15 subjects; cited from earlier work.
Chain of PD-1 (Q15116 25-288): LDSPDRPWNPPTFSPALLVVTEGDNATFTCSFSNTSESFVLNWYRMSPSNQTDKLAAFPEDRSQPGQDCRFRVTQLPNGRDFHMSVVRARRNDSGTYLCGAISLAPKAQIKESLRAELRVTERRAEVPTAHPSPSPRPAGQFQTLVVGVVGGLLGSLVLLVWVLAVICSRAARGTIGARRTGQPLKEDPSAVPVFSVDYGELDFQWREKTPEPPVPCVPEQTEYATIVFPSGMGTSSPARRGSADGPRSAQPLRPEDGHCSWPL
The mark [9] stands for this setting: monotherapy 3 mg/kg every 2 weeks, n=52.
Setting [10] is: dose 3 (mg/kg), NSCLC subjects, estimated.

Consider `CC(=O)O[C@@]12CO[C@@H]1C[C@H](O)[C@@]1(C)C(=O)[C@H](O)C3=C(C)[C@@H](OC(=O)[C@H](O)[C@@H](NC(=O)OC(C)(C)C)c4ccccc4)C[C@@](O)([C@@H](OC(=O)c4ccccc4)[C@H]21)C3(C)C` [docetaxel, reference compound], for which, in the data set on NSCLC (second-line), the “historical ORR” value is given as 8-10% and the “historical median PFS” value is listed as “approximately 3 months”. In data set [1] (CA209017), the “median overall survival (OS)” value was 6 months, the “patients with a Grade 3-5 treatment-related event” value is reported as “Fifty-seven” and the “treatment-related deaths (grade 5 event)” value is listed as 3.
In the case of `Nc1nc2[nH]cc(CCc3ccc(C(=O)N[C@@H](CCC(=O)O)C(=O)O)cc3)c2c(=O)[nH]1` [pemetrexed], the “median OS with maintenance therapy” value in the data set on NSCLC is recorded as roughly 13.9 month.
As for “bevacizumab: monoclonal antibody that blocks vascular endothelial growth factor A (VEGF-A)”, the “median OS with maintenance therapy” value with NSCLC was roughly 13.9 month.
Take gemcitabine/cisplatin: in the data set with NSCLC (human, in vivo), the “alopecia, all grades” value is recorded as 21%; the “fatigue, Grade 3/4” value is 5%; the “febrile neutropenia, Grade 3/4” value is 4%; the “rate of Grade 3/4 anemia” value is 10%. Moreover, in the data set with NSCLC (human, in vivo), the “rate of Grade 3/4 neutropenia” value is listed as 27%; the “rate of Grade 3/4 thrombocytopenia” value is given as 13%; the “vomiting, Grade 3/4” value is recorded as 6%.
“ipilimumab: fully human, IgG1 monoclonal antibody that blocks the binding of CTLA-4 to its B7 ligands”: the “drug related hypersensitivity events (Grade 1-2)” value in data set [2] (0.3 mg/kg group) was determined as 1.4%; in data set [2] (10 mg/kg group) it was 2.8%. Also, the drug-related hypersensitivity events entry in data set [2] (3 mg/kg group) is on record as “no drug-related hypersensitivity events”. Also, the “Grade 3-4 drug-related hypersensitivity events” value in data set [2] (across the 3 treatment groups) is recorded as “no Grade 3-4 drug-related hypersensitivity events”.
Take nivolumab: the “IFN-7 secretion from CMV specific memory T cells” value in [3] is given as “augmented IFN-7 secretion”. Besides, in [4] (PD-L1+ tumors), the “PFS rate at 24 weeks” value stood at 40%; the “disease control rate (DCR, CR+PR+SD)” value is given as 54%; the “median OS” value is listed as 19.1 months. In data set [4] (PD-L1+ tumors (IHC >= 5%)), the “overall response rate (ORR)” value was determined as 31%. Besides, in data set [4] (PD-L1− tumors), the “PFS rate at 24 weeks” value worked out at 45%; the “disease control rate (DCR, CR+PR+SD)” value is listed as 50%; the “median OS” value is listed as “not reached”; the “overall response rate (ORR)” value was found to be 15%. Also, in data set [4] (setting [9]), the “OS rate at 12 months” value is recorded as 74%, the “PFS rate at 24 weeks” value was 41%, the “disease control rate (DCR)” value came to 50% and the “median PFS” value is 16 weeks. Also, in data set [4] (setting [9]), the “median overall survival (OS)” value is listed as 22.6 months and the “overall response rate (ORR)” value is given as 23%. Moreover, in data set [5] (240 mg flat vs 3 mg/kg), the “coefficient of variation (cv %) of exposure greater than that of 3 mg/kg dosing” value is reported as less than 10%; the “geometric mean Cminss, Cmaxss and Cavgss with flat dosing higher than with 3 mg/kg” value is less than 15%. Moreover, the “PK in global and Japanese subjects” value in [5] (comparison of PK parameters) is “similar”. In addition, in data set [5] (setting [10]), the “Cavgss Geo. Mean” value is recorded as 73.3 (35.6), the “Cmaxss Geo. Mean” value is 118.9 (31.8) and the “Cminss Geo. Mean” value is 54.7 (41.9). Further, in data set [5] (dose range of 0.1 to 10 mg/kg, dose proportional exposures), the PK linearity result is on record as “linear”. For the same compound, in [5] (flat dose 240 (mg), predicted), the “Cavgss Geo. Mean” value is 82.4 (38.2), the “Cmaxss Geo. Mean” value is 133.7 (35.0) and the “Cminss Geo. Mean” value was 61.5 (44.6). Also, the half-life entry in data set [5] (in vivo) is given as “up to 25 days”. Also, the safety and tolerability entry in [6] (Japanese subjects) was “safe and well tolerated”. For the same compound, the “dose achieved without reaching the maximum tolerated dose (MTD)” value in data set [6] (monotherapy, every two weeks) is greater than 10 mg/kg. Besides, in data set [6] (up to a dose level of 10 mg/kg), the safety and tolerability entry was “safe and well tolerated”. Besides, in the data set with previously treated NSCLC, the objective response rates is listed as roughly 25% and the “progression-free survival (PFS) rate at 24 weeks” value was roughly 45%. In addition, the “overall response rate (ORR)” value in [7] is reported as 15%. Moreover, in data set [8] (non-squamous), the “24-week PFS rate” value is on record as 42% and the “objective response rate (ORR)” value is recorded as 26%. For the same compound, in [8] (squamous), the “24-week PFS rate” value is reported as 45% and the “objective response rate (ORR)” value is on record as 22%. In [1] (CA209017), the “HR for overall survival vs docetaxel” value is given as 0.59, the “median overall survival (OS)” value is 9.6 months and the “treatment-related deaths (grade 5 event)” value is “none”. The “patients with a Grade 3-5 treatment-related event” value in data set [1] (in vivo) is 6.9%. Moreover, at PD-1, the “mean PD-1 occupancy rate” value is given as 85% and the mean plateau occupancy is reported as 72%.
As to paclitaxel/carboplatin, in the data set on NSCLC (human, in vivo), the “arthralgia, Grade 3/4” value was 6%; the “fatigue, Grade 3/4” value is listed as 5%; the “febrile neutropenia, Grade 3/4” value is listed as 3%; the “neuropathy, Grade 2/3” value is recorded as 18%.
